The values below come from patent publication US4550078A, “Method for the quantitative determination of individual polyamine components in a mixture” (Amano Seiyaku Kabushiki Kaisha, priority 1982, dated 1985).

Like-named read-outs stand apart in the source and are kept apart here. Some results are limits rather than exact numbers.

For test [1], the target named is T1, putrescine oxidase (Kocuria rosea, UniProt P40974).
T1 sequence (P40974 1-478): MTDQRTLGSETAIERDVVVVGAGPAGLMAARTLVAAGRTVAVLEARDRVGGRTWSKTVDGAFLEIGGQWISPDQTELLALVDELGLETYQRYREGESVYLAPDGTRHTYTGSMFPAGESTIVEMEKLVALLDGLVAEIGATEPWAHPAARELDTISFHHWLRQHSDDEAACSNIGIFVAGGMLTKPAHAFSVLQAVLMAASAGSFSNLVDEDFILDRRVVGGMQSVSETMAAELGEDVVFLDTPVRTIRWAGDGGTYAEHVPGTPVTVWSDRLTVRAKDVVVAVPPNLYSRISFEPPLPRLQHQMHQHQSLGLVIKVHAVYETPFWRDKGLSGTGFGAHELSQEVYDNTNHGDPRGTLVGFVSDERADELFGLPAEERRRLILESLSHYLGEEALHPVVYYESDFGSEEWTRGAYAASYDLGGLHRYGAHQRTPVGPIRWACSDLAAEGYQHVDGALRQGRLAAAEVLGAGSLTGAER
To be noted: cited from earlier work.

The test system of test [2] is polyamine oxidase PC-3. Briefly: Enzymatic oxidative decomposition by polyamine oxidase PC-3, colorimetric determination of hydrogen peroxide. Type of test: biochemical. To be noted: for Activity of the enzyme on the substrate: N8-acetylspermidine only if the concentration of the enzyme is relatively high; for H2O2 formed: substrates marked * only with a relatively high concentration of the enzyme, -- = no activity; for hydrogen peroxide produced per mole of the substrate / time to completion of the reaction: pH 5.5, 35° C., about 0.05 unit of enzyme (about 15 units for N8-acetylspermidine).

For test [3], the system named is polyamine oxidase PC-3 followed by acetylputrescine oxidase. Briefly: Two-step reaction: polyamine oxidase PC-3, then acetylputrescine oxidase. The class given is biochemical.
In test [4] the test system is polyamine oxidase PC-3. To be noted: cited from earlier work.
For test [5], the target named is T1, putrescine oxidase. Description: Enzymatic oxidative decomposition by putrescine oxidase, colorimetric determination of hydrogen peroxide. To be noted: for H2O2 formed: Table 1, -- = no activity; for hydrogen peroxide produced per mole of the substrate / time to completion of the reaction: borate buffer pH 8.5, 35° C., about 0.5 unit of enzyme. Type of test: biochemical.

The subject of test [6] is polyamine oxidase AT-1. Briefly: Enzymatic oxidative decomposition by polyamine oxidase AT-1, colorimetric determination of hydrogen peroxide. Type of test: biochemical. To be noted: for putrescine formed / H2O2 formed: Table 1, substrates marked * only with a relatively high concentration of the enzyme; for H2O2 formed: -- = no activity; for hydrogen peroxide produced per mole of the substrate / time to completion of the reaction: pH 6.5, 35° C., 0.05 unit of enzyme (2 units for acetylspermine); for Activity of the enzyme on the substrate: spermine and spermidine at low enzyme concentration, acetylspermine and N1-acetylspermidine when the concentration of the enzyme is increased.

In test [7] the test system is polyamine oxidase AT-1 followed by putrescine oxidase. Description: Two-step reaction: polyamine oxidase AT-1, then putrescine oxidase. The class given is biochemical. As to conditions: for absorbance after the first step / increment of absorbance in the second step / absorbance after the second step: 505 nm; for absorbance after the first step: AT-1 0.05 unit (about 5 units for acetylspermine and N1-acetylspermidine), 0.5 ml of 400 μM substrate in 2.5 ml; for increment of absorbance in the second step: after addition of putrescine oxidase; for absorbance after the second step: putrescine oxidase 0.5 unit, pH 8-9, 5 minutes; for hydrogen peroxide produced per mole of the substrate in the first step: polyamine oxidase AT-1; for hydrogen peroxide produced in the second step: putrescine oxidase acting on the putrescine produced in the first step.

In test [8] the test system is polyamine oxidase PC-3 followed by putrescine oxidase. Briefly: Two-step reaction: polyamine oxidase PC-3, then putrescine oxidase. The class given is biochemical. As to conditions: for absorbance after the first step / increment of absorbance in the second step / absorbance after the second step: 505 nm; for absorbance after the first step: PC-3 about 0.05 unit, acetate buffer pH 5.0; for increment of absorbance in the second step: after addition of putrescine oxidase; for absorbance after the second step: putrescine oxidase about 0.5 unit, pH 8-8.5, 5 minutes; for hydrogen peroxide produced per mole of the substrate in the first step: polyamine oxidase PC-3; for hydrogen peroxide produced per mole of the substrate in the second step: putrescine oxidase.

The subject of test [9] is polyamine oxidase AT-1. To be noted: cited from earlier work.

As to `NCCCN` [1,3-diaminopropane], on putrescine oxidase [1], the Substrate specificity result is “inactive”.
For the molecule `CC(=O)NCCCCNCCCN` [N^8 -acetylspermidine], in the test on polyamine oxidase PC-3 [2], the “Activity of the enzyme on the substrate” value is given as “active”, the “hydrogen peroxide produced per mole of the substrate” value is 1 mol and the “time to completion of the reaction” value was not above 10 min. In the test with polyamine oxidase PC-3 [2] (Table 1, relatively high concentration of the enzyme), the acetylputrescine formed is on record as 1 moles per mole of the substrat. In the test on polyamine oxidase PC-3 [2] (Table 1), the H2O2 formed is 1 moles per mole of the substrat. In addition, the “absorbance after the first step” value in test [3] (505 nm, PC-3 about 15 units, pH 5.5, 0.5 ml of 400 μM substrate in 2.5 ml) was determined as 0.500. The “absorbance after the second step” value in [3] (505 nm, acetylputrescine oxidase about 0.5 unit, pH about 7.5, about 10 minutes) was 1.000. Besides, the “increment of absorbance in the second step” value (“increment of absorbance” below) in test [3] (505 nm, after addition of acetylputrescine oxidase) was found to be 0.500. Moreover, in test [3] (acetylputrescine oxidase), the “hydrogen peroxide produced per mole of the substrate in the second step” value is 1 mol. The “hydrogen peroxide produced per mole of the substrate in the first step” value in test [3] (polyamine oxidase PC-3) worked out at 1 mol.
Turning to `O=C(O)c1cc[c]([Hg][Cl])cc1` [PCMB], the Inhibitors entry in the test with polyamine oxidase PC-3 [4] (spermine as the substrate) is on record as “inhibition”.
Take `O=C(O)CI` [monoiodoacetic acid]: the Inhibitors entry with polyamine oxidase PC-3 [4] is reported as “inhibition”.
Take `NCCCCN` [putrescine]: at putrescine oxidase [5], the H2O2 formed is listed as 1 moles per mole of the substrat, the “hydrogen peroxide produced per mole of the substrate” value worked out at 1 mol and the “time to completion of the reaction” value is not above 5 min. Also, on putrescine oxidase [1], the “Enzymatic activity: products per mole of the substrate” value (“Enzymatic activity: products per mole” for short) was “each 1 mole of 4-aminobutanal, hydrogen peroxide and ammonia”; the Substrate specificity result was “active”.
For `NCCCCNCCCN` [spermidine], in the test with polyamine oxidase AT-1 [6], the putrescine formed was 1 moles per mole of the substrat, the H2O2 formed is 1 moles per mole of the substrat, the “hydrogen peroxide produced per mole of the substrate” value came to 1 mol and the “time to completion of the reaction” value is not above 5 min. Further, the “Activity of the enzyme on the substrate” value with polyamine oxidase AT-1 [6] was “active”. Further, in the test on polyamine oxidase PC-3 [2], the “Activity of the enzyme on the substrate” value is recorded as “active”, the “hydrogen peroxide produced per mole of the substrate” value was found to be 1 mol and the “time to completion of the reaction” value is not above 10 min. In addition, in the test on polyamine oxidase PC-3 [2] (Table 1), the putrescine formed is reported as 1 moles per mole of the substrat and the H2O2 formed is 1 moles per mole of the substrat. Besides, on putrescine oxidase [5], the H2O2 formed is 1 moles per mole of the substrat, the “hydrogen peroxide produced per mole of the substrate” value came out at 1 mol and the “time to completion of the reaction” value was not above 10 min. In [7], the “absorbance after the first step” value came out at 0.50, the “increment of absorbance” value is reported as 0.50, the “absorbance after the second step” value is 1.00 and the “hydrogen peroxide produced per mole of the substrate in the first step” value came to 1 mol. Further, the “hydrogen peroxide produced in the second step” value in test [7] came out at 1 mol. Moreover, in test [8], the “absorbance after the first step” value is 0.50, the “increment of absorbance” value is 0.50, the “absorbance after the second step” value came to 1.00 and the “hydrogen peroxide produced per mole of the substrate in the first step” value turned out to be 1 mol. Besides, the “hydrogen peroxide produced per mole of the substrate in the second step” value in test [8] came to 1 mol. Besides, in the test with polyamine oxidase AT-1 [9] (oxidation with formation of hydrogen peroxide), the Substrate specificity entry is listed as “active”. The “Enzymatic activity: products per mole” value in the test on polyamine oxidase AT-1 [9] (polyamine oxidase AT-1) was “each 1 mole of putrescine, 3-aminopropanal and hydrogen peroxide”. In addition, in the test with polyamine oxidase PC-3 [4] (polyamine oxidase PC-3), the “Enzymatic activity: products per mole” value was “each 1 mole of putrescine, 3-aminopropanaland hydrogen peroxide” and the Substrate specificity result is on record as “active”. Moreover, on putrescine oxidase [1], the “Enzymatic activity: products per mole” value was “each 1 mole of 1,3-diaminopropane, 4-aminobutanal and hydrogen peroxide”; the Substrate specificity entry is listed as “active”.
As for `NCCCNCCCCNCCCN` [spermine], the “absorbance at completion of the reaction” value in the test with polyamine oxidase AT-1 [6] (505 nm, 0.5 ml of 400 μM substrate in 2.5 ml, pH 6.5, 35° C., 0.05 unit of enzyme) was determined as 1.00. In the test with polyamine oxidase AT-1 [6], the putrescine formed was 1 moles per mole of the substrat, the H2O2 formed is reported as 2 moles per mole of the substrat, the “hydrogen peroxide produced per mole of the substrate” value worked out at 2 mol and the “time to completion of the reaction” value was not above 5 min. In addition, the “Activity of the enzyme on the substrate” value in the test with polyamine oxidase AT-1 [6] is listed as “active”. In addition, in the test on polyamine oxidase PC-3 [2], the “Activity of the enzyme on the substrate” value is recorded as “active”, the “hydrogen peroxide produced per mole of the substrate” value came out at 2 mol and the “time to completion of the reaction” value was not above 5 min. In the test with polyamine oxidase PC-3 [2] (Table 1), the putrescine formed was 1 moles per mole of the substrat and the H2O2 formed is 2 moles per mole of the substrat. Moreover, in test [7], the “absorbance after the first step” value was found to be 1.00, the “increment of absorbance” value is listed as 0.50, the “absorbance after the second step” value is listed as 1.50 and the “hydrogen peroxide produced per mole of the substrate in the first step” value is 2 mol. In [7], the “hydrogen peroxide produced in the second step” value was 1 mol. For the same molecule, in [8], the “absorbance after the first step” value was determined as 1.00, the “increment of absorbance” value came to 0.50, the “absorbance after the second step” value is reported as 1.50 and the “hydrogen peroxide produced per mole of the substrate in the first step” value came to 2 mol. Also, the “hydrogen peroxide produced per mole of the substrate in the second step” value in [8] came out at 1 mol. Also, in the test with polyamine oxidase AT-1 [9], the “Enzymatic activity: products per mole” value is 1 mole of putrescine and each 2 moles of 3-aminopropanal and hydrogen peroxide; the Substrate specificity entry is on record as “active”. In the test on polyamine oxidase PC-3 [4], the “Enzymatic activity: products per mole” value was 1 mole of putrescine and each 2 moles of 3-aminopropanal and hydrogen peroxide; the Substrate specificity result is given as “active”. For the same molecule, the Substrate specificity result at putrescine oxidase [1] was “inactive”.
silver: the results for the Inhibitors entry with polyamine oxidase AT-1 [9] (polyamine oxidase AT-1), with polyamine oxidase PC-3 [4] (spermidine as the substrate) and with polyamine oxidase PC-3 [4] (spermine as the substrate) were “strong inhibition”, “inhibition” and “inhibition”, respectively.
